Values of other authors in patent US5413991A (Ajinomoto Co., Inc., priority 1991, dated 1995).

How the values were obtained:
[1] = biological target: chitinase from baker's yeast (Saccharomyces cerevisiae) (Saccharomyces cerevisiae, UniProt P29029); details: background statement; cited from earlier work
[2] = tested on: chitinase of pathogenic fungi such as Candida albicans; details: background statement; cited from earlier work

Chain of chitinase from baker's yeast (Saccharomyces cerevisiae) (P29029 21-562): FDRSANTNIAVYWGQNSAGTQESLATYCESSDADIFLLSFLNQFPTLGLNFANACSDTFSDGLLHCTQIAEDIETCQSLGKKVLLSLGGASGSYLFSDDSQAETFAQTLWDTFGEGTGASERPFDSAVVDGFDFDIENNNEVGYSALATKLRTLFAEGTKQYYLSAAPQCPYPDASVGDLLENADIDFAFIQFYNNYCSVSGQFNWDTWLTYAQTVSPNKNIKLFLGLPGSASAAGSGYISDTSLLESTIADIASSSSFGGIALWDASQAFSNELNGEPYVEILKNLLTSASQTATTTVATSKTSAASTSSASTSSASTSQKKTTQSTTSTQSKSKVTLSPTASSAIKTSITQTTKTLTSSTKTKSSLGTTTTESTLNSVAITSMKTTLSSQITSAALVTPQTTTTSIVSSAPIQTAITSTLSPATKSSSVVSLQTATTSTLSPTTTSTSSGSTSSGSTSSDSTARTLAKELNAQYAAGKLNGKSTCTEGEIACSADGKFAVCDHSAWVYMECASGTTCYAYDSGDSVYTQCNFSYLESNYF

## CNC1=N[C@@H]2[C@@H](O)[C@H](O[C@@H]3O[C@H](CO)[C@@H](O[C@@H]4O[C@H](CO)[C@@H](O)[C@@H](O)[C@H]4NC(C)=O)[C@@H](O)[C@H]3NC(C)=O)[C@@H](CO)[C@@H]2O1 [Demethylallosamidin, demethylallosamidin]
[1]
  Inhibitory activity against chitinase from baker's yeast: potent inhibitory activity
[2]
  Inhibitory activity against chitinase of Candida albicans: insufficient
